Experimental data: US20260259232A1, “A METHOD” (OWLSTONE MEDICAL LIMITED, priority 2022, published 2026)

Assay: Breath analysis by SIFT-MS before and after ingestion of 75 g glucose in healthy subjects
Assay type: in vivo, human
Conditions: for Cmax (maximum levels) in breath, interquartile range (IQR) / Cmax (maximum levels) in breath, median (M): breath sampled every 5 minutes for 90 minutes
[1] = 10 healthy subjects fasted overnight, after 75 grams of glucose in 300 ml of water

Method: A total of 10 healthy subjects were recruited and instructed to fast overnight and avoid drinking alcohol the day before the experiment. Breath was analysed using selected ion flow tube mass spectrometry (SIFT-MS). […] Afterwards, 75 grams of glucose dissolved in 300 ml of water were ingested, and 3 consecutive breath samples were provided every 5 minutes for 90 minutes. Measured compounds were expressed as part per billion volume/volume (PPB) and plotted as a function of time. Ambient samples were collected before and after the procedure.
The subjects were asked to fast overnight and not drink alcohol the day before the experiment.
A total of 75 g of glucose from Bulk (https://www.bulk.com/uk/dextrose.html?view=ppc&pid=2378&gclid=CjwKCAjw-vmkBhBMEiwAlrMeF2SOAMhqgNq65EV8YC2XWu63e4ByfJckgwv5jKZfzCA6BbIB24sLSBoC—kQAvD_BwE) was weighted in a glass and 300 ml of water was added and mixed until the full amount was dissolved. A total of 6 blank samples were collected and analysed before and after the procedure. The subjects provided breath samples before and every 5 minutes over 90 minutes after glucose ingestion. Each timepoint was represented by a 15 second breath exhalation consecutively repeated 3 times ed o and averaged for every timepoint. Breath samples were directly sampled for Selected-ion flow-tube mass spectrometry (SIFT-MS). Subjects exhaled into a single use Mouthpiece and Reservoir Tube (PO007257 Imspex) that were replaced for each timepoint collection.
Scans were performed in batch mode; data were collected in single ion mode (SIM). SIM scan was 50 secs long.

Tmax (time to maximum level) in breath, interquartile range (IQR) [1]	Tmax (time to maximum level) in breath, median (M) [1]	Cmax (maximum levels) in breath, interquartile range (IQR) [1]	Cmax (maximum levels) in breath, median (M) [1]	Time for breath levels to return to baseline (after glucose administration, all investigated subjects)	SMILES	Return of breath levels to baseline (in words) (after glucose administration, investigated timeframe 90 minutes)
10 to 15 min	10 min	4-8.8 PPB	7 PPB	≤ 50 min	CC(=O)C(C)O (centres unmarked) [acetoin]	–
–	–	303-593 PPB	400 PPB	–	CCO [ethanol]	returned to baseline at the end of the investigated timeframe for all but 1 subject
